Details in all cases: Homo sapiens
In one experiment the test system is SJSA-1. The experiment is described as follows: Cell proliferation (Alamar Blue) assay, SJSA-1 osteosarcoma, with/without ferrostatin. In kind it is cell-based, human. The method, then: (§1) Cell viability assay was performed to assess the potency of the compounds in human cancer cell lines 786-O (renal cell carcinoma) and SJSA-1 (osteosarcoma). Additional cell lines, such as those described above in Example 4 as well as various others, e.g., pancreatic cancer cell lines (Panc 02.13, BxPC-3, Panc 12, Panc 02.03, Panc 6.03, PSN-1, HPAC, and Capan-1) and prostate cancer cell lines (PC-3, DU145, 22Rv1, NCI-H660, BPH1, LNCaP, BM-1604, and MDA PCa 2b), were tested for select compounds as shown in Table 25.
(§2) Cells (SJSA-1, 786-O and A431) were seeded (5000 cells/100 μL/well) in 96-well tissue culture plate and incubated at 37° C./5% CO2 for 16-24 hours. The cells were then treated with compounds (25 μL of 5×). The compound concentrations were 10-0.0005 μM prepared in 3-fold serial dilutions with final DMSO concentration of 1%. The plates were then incubated for 24 h at 37° C./5% CO2 in a moist environment. Then Alamar Blue™ reagent (final concentration 1×-12.5 μL) was added to each well and incubated for 1.5 hours at 37° C./5% CO2. The plates were read on fluorescence reader at 540 nm excitation and 590 nm emission wavelengths. The IC50 values were subsequently determined using a sigmoidal dose-response curve (variable slope) in GraphPad Prism® 5 software.
(§3) Studies have shown that lipophilic antioxidants, such as ferrostatin, can rescue cells from GPX4 inhibition-induced ferroptosis. For instance, mesenchymal state GPX4-knockout cells can survive in the presence of ferrostatin, however, when the supply of ferrostatin is terminated, these cells undergo ferroptosis (see, e.g., Viswanathan et al., Nature 547:453-7, 2017). […] Accordingly, the ability of a molecule to induce ferroptotic cancer cell death, and that such ability is admonished by the addition of ferrostatin, is clear indication that the molecule is an GPX4 inhibitor.
For orientation: The colour change of resazurin is a common sign of viable cells or microbes.

Another experiment deals with 786-O. Kind of experiment: Cell proliferation (Alamar Blue) assay, 786-O renal cell carcinoma, with/without ferrostatin. Type of experiment: cell-based. The method, then:
as §1, §2, §3

The test system of the next experiment is A549. The experiment is described as follows: Cell viability assay, A549 cells. In kind it is cell-based. The method, then: Example 5: Inducer Compound Effect on Growth of A549 and KP4 Cells
Cell viability assay was performed to assess the potency of the compounds in cancer cell line KP4 (pancreatic ductal adenocarcinoma). Cells at a density of 1,000-10,000 cells/well were seeded in 96-well plates and incubated at 37° C. overnight. A series of 9 different concentrations of compound stocks (500×) were created by 3-fold serial dilution in DMSO. These compounds were further diluted in culture media and then added to cells so that the final DMSO concentration was equal to 0.25% or less. After 96 hours of incubation, 50 μL of CellTiter Glo reagent (Promega) was added to each well and luminescence was measured after 10 minutes using EnVision (PerkinElmer). All compounds were tested initially from 30 μM as the top concentration in duplicates (range of 4.6 nM-30 μM). […] Luminescence from cells treated with DMSO alone was set as Max and % of inhibition was calculated as follows: Inhibition %=(Max-Sample value)/Max*100. Data was analyzed using XL-fit software (ID Business Solutions Ltd.). IC50, relative IC50, or % of top inhibition was calculated. […]

The next experiment has as its system KP4. The experiment is described as follows: Cell viability assay (CellTiter Glo), pancreatic ductal adenocarcinoma KP4. In kind it is cell-based, human. The essentials:
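Luminescent ATP readout (CellTiter Glo) after 96 h compound exposure, normalized to DMSO-treated cells as maximum. Compounds ran in duplicate, nine 3-fold steps from 30 μM down to 4.6 nM, final DMSO ≤0.25%; KP4 plated overnight at 1,000–10,000 cells/well. Outputs: IC50, relative IC50 or % top inhibition.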

Setting [1] is: SJSA-1, Cell Line SJSA-1, read-out: IC50.
The mark [2] stands for this setting: 786-0, Cell Line 786-O, read-out: IC50.
The mark [3] stands for this setting: A549, Cell Line A549, read-out: IC50.
Where [4] appears, read: KP-4, Cell Line KP4, read-out: IC50.
Where [5] appears, read: SJSA-1, 24 h, Alamar Blue, 24 h, 2 μM ferrostatin, read-out: SJSA-1 (IC50, μM) 2 μM Ferrostatin.
The mark [6] stands for this setting: SJSA-1, 24 h, Alamar Blue, 24 h, without ferrostatin, read-out: SJSA-1 (IC50, μM) Without Ferrostatin.
[7] abbreviates: 786-0, 24 h, Alamar Blue, 24 h, 2 μM ferrostatin, read-out: 786-O (IC50, μM) 2 μM Ferrostatin.
[8] abbreviates: 786-0, 24 h, Alamar Blue, 24 h, without ferrostatin, read-out: 786-O (IC50, μM) Without Ferrostatin.

The structures appear in SMILES notation. Where two headings read alike, the source gives them in different places.

The IC50 is the concentration that inhibits the measured activity by half.

Regarding `C[C@H]1Cc2c([nH]c3ccccc23)[C@@H](c2ccc(S(=O)(=O)NC3CC3)cc2F)N1C(=O)CCl` (single isomer, unassigned) [Compound 161], the half-maximal inhibitory concentration (IC50) in the experiment on SJSA-1 (setting [1]) worked out at 4.3 µM; with 786-O (setting [2]), 2.8 µM.
Consider `C[C@H]1Cc2c([nH]c3ccccc23)[C@H](c2ccc(S(=O)(=O)NC3CC3)cc2F)N1C(=O)CCl` (single isomer, unassigned) [Compound 217], for which the IC50 in the experiment with SJSA-1 (setting [1]) is 0.028 µM; in the experiment on 786-O (setting [2]) it was 0.022 µM.
For the molecule `CC(C)[C@H]1Cc2c([nH]c3ccccc23)[C@H](c2ccc(N3CCOCC3)cc2)N1C(=O)CCl` [Compound 119], the IC50 was 12800 nM with A549 (setting [3]) and 0.102 µM in the experiment with KP4 (setting [4]).
In the case of `C[C@H]1Cc2c([nH]c3ccc(Cl)cc23)[C@H](c2ccc(N3CCOCC3)cc2)N1C(=O)CCl` [Compound 120], the IC50 with A549 (setting [3]) is 807 nM; in the experiment with KP4 (KP-4, 96 h, pancreatic cancer cell line KP4, 96 hours, CellTiter Glo, read-out: IC50 μM KP4) it was 0.1 to 0.5 µM.
Consider `C[C@H]1Cc2c([nH]c3ccccc23)[C@@H](c2ccc(N3CCOCC3)cc2)N1C(=O)CCl` [Compound 125, 2-chloro-1-((1R,3S)-3-methyl-1-(4-morpholinophenyl)-1,3,4,9-tetrahydro-2H-pyrido[3,4-b]indol-2-yl)ethan-1-one], for which the IC50 in the experiment with SJSA-1 (setting [1]) turned out to be 4 µM; with 786-O (setting [2]) it was 2 µM.
Taken in the same sequence, the figures for `COC(=O)[C@H]1Cc2c([nH]c3ccccc23)[C@@H](c2ccc(C(=O)NC34CC5CC(CC(C5)C3)C4)cc2)N1C(=O)CCl` [Compound 130, Methyl-(1R,3R)-1-(4-(((3S,5S,7S)-adamantan-1-yl)carbamoyl)phenyl)-2-(2-chloroacetyl)-2,3,4,9-tetrahydro-1H-pyrido[3,4-b]indole-3-carboxylate] were 2.7 µM and 1.8 µM.
In the same order, the values of `C[C@H]1Cc2c([nH]c3ccccc23)[C@@H](c2ccc(S(=O)(=O)NC3CCNCC3)cc2)N1C(=O)CCl` [Compound 133, 4-((1R,3S)-2-(2-chloroacetyl)-3-methyl-2,3,4,9-tetrahydro-1H-pyrido[3,4-b]indol-1-yl)-N-(piperidin-4-yl)benzenesulfonamide2,2,2-trifluoroacetic acid] are above 10 µM and above 10 µM.
In the same order, the values of `C#CC(=O)N1[C@@H](c2ccc(S(=O)(=O)NC3CC3)cc2F)c2[nH]c3ccc(F)cc3c2C[C@@H]1C` [Compound 153, N-cyclopropyl-3-fluoro-4-((1S,3S)-6-fluoro-3-methyl-2-propioloyl-2,3,4,9-tetrahydro-1H-pyrido[3,4-b]indol-1-yl)benzenesulfonamide] are 0.015 µM and 0.009 µM.
`COC[C@H]1Cc2c([nH]c3ccccc23)C(c2ccc(C(=O)NC3CC3)cc2F)N1C(=O)CCl` (stereo partly drawn) [Compound 162, 4-((3R)-2-(2-chloroacetyl)-3-(methoxymethyl)-2,3,4,9-tetrahydro-1H-pyrido[3,4-b]indol-1-yl)-N-cyclopropyl-3-fluorobenzamide]: the IC50 stood at 0.085 µM in the experiment on SJSA-1 (setting [1]) and 0.06 µM in the experiment with 786-O (setting [2]).
On to `C[C@H]1Cc2c([nH]c3ccccc23)[C@H](c2ccncc2)N1C(=O)CCl` [Compound 171], for which the IC50 in the experiment with SJSA-1 (setting [5]) was above 10 µM; in the experiment on SJSA-1 (setting [6]), 0.254 µM; in the experiment on 786-O (setting [7]), above 10 µM; in the experiment on 786-O (setting [8]), 0.162 µM; in the experiment on 786-O (setting [2]), 0.162 µM.
For the molecule `C#CC(=O)N1[C@@H](c2ccc(S(=O)(=O)NC3CC3)cc2F)c2[nH]c3ccccc3c2C[C@@H]1C` [Compound 174], the IC50 in the experiment on SJSA-1 (setting [5]) was 2.32 µM; in the experiment on SJSA-1 (setting [6]) it was 0.091 µM; in the experiment on 786-O (setting [7]) it was 5.09 µM; in the experiment on 786-O (setting [8]), 0.016 µM; with 786-O (setting [2]), 0.016 µM.
Consider `C=C(C(=O)N1[C@@H](c2ccc(N3CCOCC3)cc2)c2[nH]c3ccccc3c2C[C@@H]1C)C(F)(F)F` [Compound 175], for which the IC50 in the experiment with SJSA-1 (setting [1]) and in the experiment on 786-O (setting [2]) was above 10 µM in each case.
Take `CCS(=O)(=O)N1CCN(c2ccc([C@H]3c4[nH]c5ccccc5c4C[C@H](C)N3C(=O)CCl)cc2)CC1` [Compound 209]: the IC50 in the experiment with SJSA-1 (setting [5]) is 8.29 µM; with SJSA-1 (setting [6]) it was 0.019 µM; in the experiment with 786-O (setting [7]), above 10 µM; in the experiment with 786-O (setting [8]), 0.022 µM; in the experiment with 786-O (setting [2]), 0.022 µM.
With `C#CCOc1ccc2[nH]c3c(c2c1)C[C@H](C(=O)OC)N(C(=O)CCl)[C@H]3c1ccc(C(=O)NC23CC4CC(CC(C4)C2)C3)cc1` [Compound 211], the IC50 turned out to be 5.92 µM in the experiment on SJSA-1 (setting [5]); 0.011 µM in the experiment with SJSA-1 (setting [6]); 3.94 µM in the experiment on 786-O (setting [7]); 0.009 µM with 786-O (setting [8]); 0.009 µM in the experiment with 786-O (setting [2]).
As to `CC1CN(c2ccc([C@H]3c4[nH]c5ccccc5c4C[C@H](C)N3C(=O)CCl)cc2)CC(C)O1` (stereo partly drawn) [Compound 212], the IC50 in the experiment with SJSA-1 (setting [5]) is 5.03 µM; in the experiment on SJSA-1 (setting [6]), 0.011 µM; in the experiment with SJSA-1 (setting [1]), 0.011 µM; in the experiment on 786-O (setting [7]), 4.96 µM; in the experiment on 786-O (setting [8]), 0.008 µM.
On to `C[C@H]1Cc2c([nH]c3ccccc23)[C@H](c2ccc(S(=O)(=O)NC3CCNCC3)cc2)N1C(=O)CCl` [Compound 218, 4-((1S,3S)-2-(2-chloroacetyl)-3-methyl-2,3,4,9-tetrahydro-1H-pyrido[3,4-b]indol-1-yl)-N-(piperidin-4-yl)benzenesulfonamide], for which the IC50 in the experiment on SJSA-1 (setting [1]) was determined as 1.4 µM; with 786-O (setting [2]), 8.1 µM.
Turning to `C/C=C/C(=O)N1[C@@H](c2ccc(N3CCOCC3)cc2)c2[nH]c3ccccc3c2C[C@@H]1C` [Compound 228], the IC50 with A549 (setting [3]) is above 30000 nM; with KP4 (setting [4]) it was above 30 µM.
For `[2H]C([2H])(Cl)C(=O)N1[C@@H](c2ccc(C(=O)NC34CC5CC(CC(C5)C3)C4)cc2)c2[nH]c3ccccc3c2C[C@@H]1C(=O)OC` [Compound 250], the IC50 in the experiment with A549 (setting [3]) was determined as 2400 nM.
Turning to `COC(=O)c1ccc([C@H]2c3[nH]c4ccc(OC)cc4c3C[C@H](C)N2C(=O)CCl)cc1` [Compound 278], the IC50 was determined as 0.14 µM with SJSA-1 (setting [1]) and 0.22 µM with 786-O (setting [2]).
Taken in the same sequence, the figures for `C#CC(=O)N1[C@@H](c2ccc(C(=O)NC3CC3)cc2)c2ccc(OC)cc2C[C@@H]1C` [Compound 279] were 1 µM and 0.58 µM.
In the same order, the values of `COc1ccc2c(c1)C[C@H](C)N(C(=O)CCl)[C@H]2c1ccc(C(=O)NC2CC2)cc1` [Compound 280] are 0.38 µM and 0.21 µM.
In the same order, the values of `COc1ccc2[nH]c3c(c2c1)C[C@H](C)N(C(=O)CCl)[C@H]3c1ccc(F)cc1` [Compound 281] are 0.261 µM and 0.206 µM.
As to `C#CC(=O)N1[C@@H](c2ccc(F)cc2)c2[nH]c3ccc(OC)cc3c2C[C@@H]1C` [Compound 282], the IC50 is 0.436 µM in the experiment on SJSA-1 (setting [1]) and 0.223 µM with 786-O (setting [2]).
Taken in the same sequence, the figures for `C[C@H]1Cc2c([nH]c3ccccc23)[C@H](c2ccc(S(=O)(=O)NC3CCN(C(=O)OC(C)(C)C)CC3)cc2)N1C(=O)CCl` [Compound 293, tert-butyl-4-((4-((1S,3S)-2-(2-chloroacetyl)-3-methyl-2,3,4,9-tetrahydro-1H-pyrido[3,4-b]indol-1-yl)phenyl)sulfonamido)piperidine-1-carboxylate] were 0.03 µM and 0.067 µM.
As for `COC(=O)c1ccc([C@H]2c3[nH]c4ccc(Cl)cc4c3C[C@H](C(=O)OC)N2C(=O)CCl)cc1` [Example 93], in the experiment with A549 (A549, A549, read-out: IC50 for A549), the IC50 came out at 250 nM.

The values above are taken from patent publication US11098040B2, “Compounds and methods of use” (Ferro Therapeutics, Inc., priority 2018, dated 2021).
